Results taken from patent US7135457B1, “Random peptides that bind to gastro-intestinal tract (GIT) transport receptors and related methods” (Cytogen Corporation, priority 1997, dated 2006).
Peptide text beside a SMILES is read from it. * marks the point of attachment. Dansyl = CN(C)c1cccc2c(S(=O)(=O)*)cccc12

Columns and labels:
[1] = system: P100 membrane fractions derived from Caco-2 cells; assay: Dansylated peptide ELISA on P100: PAX2 and HAX42 peptides relative binding
Description: The peptides and proteins were analyzed by a dansylated peptide ELISA method in which 96 well plates were coated overnight at 4° C. with 100 μl/well coating protein (normally 100 μg/ml P100 membrane fraction) in 0.05M carbonate buffer pH9.6. Nonspecific binding was blocked using 200 μl/well, 2% Marvel/PBS for 2 hours at 37° C. prior to incubation with dansylated peptides. The plates were washed three times with PBS/0.05% Tween 20 and after each subsequent incubation step. […] A buffer blank control was included to ensure that background binding to plastic was not due to the antibodies used in the assay system. […] The plates were then incubated with an anti-mouse λ-HRP conjugated antibody (Southern Biotech 1060-05) at a 1:10,000 dilution in blocking solution, 100 μl/well for 1 hour at room temperature. Plates were developed using 75 μl/well Bionostics TMB substrate and incubated for approximately 10 minutes. The developing reaction was stopped using Bionostics Red Stop solution (25 μl/well), and the optical density of the plates was read at 650 nm.

[2] = Drug potency, peptide loading and size of coacervated particles; assay type: physicochemical; conditions: formulation 1 particles (coacervation), blend; for Insulin (insulin potency): coated with the named peptide; for Peptide (level of peptide coated onto the particles): measured by fluorescence
[3] = Description: In particular, phages selected in vitro to each receptor or binding site located in the GIT were amplified in E. coli, PEG-precipitated, resuspended in TBS and the titer of each phage sample was determined by plaquing in E. coli as described above. […] Using the in situ loop model described above, 0.5 ml of preselected phage library solution was injected into the tied-off portion of the duodenum/jejunum. Blood was collected into heparinized tubes from the portal vein at 0, 15, 30, 45 and 60 minutes. A blood sample was taken from the systemic circulation at the end of the experiment. Similarly, the portion of the duodenum/jejunum used for phage injection was taken at the end of the experiment.
Thirty microliters of the collected portal blood (neat and 10^−2, 10^−4, 10^−6 dilutions) was added to 30 μl E. coli K91Kan cells (overnight culture) and incubated at 37° C. for 10 min. Subsequently, 3 ml of top agarose was added and the samples were plated for plaques. One hundred microliters of the collected portal blood was added to 100 μl of E. coli K91Kan. Five milliliters of LB medium was then added and the samples were incubated at 37° C. overnight in a rotating microbial incubator. The E. coli was removed by centrifugation and the amplified phage supernatant samples were either titered directly or were PEG-precipitated, resuspended in TBS and titered. Following titration of the amplified phage, samples containing phage from each set of animals were combined, adjusting the titer of each sample to the same titer, and were plated for plaques on LB agar plates (22 cm^2 square plates). Either 12,000 or 24,000 phage were plated for plaques.
Thirty microliters of the collected systemic blood (neat and 10^−2, 10^−4, 10^−6 dilutions) was added to E. coli K91Kan cells, incubated at 37° C. for 10 min. Three ml of top agarose was then added and the samples were plated for plaques. One hundred microliters of the collected systemic blood was added to 100 μl of E. coli K91Kan, incubated at 37° C. for 10 min. Five milliliters of LB medium was then added and the samples were incubated at 37° C. overnight in a rotating microbial incubator. The E. coli was removed by centrifugation and the amplified phage supernatant samples were either titered directly or were PEG-precipitated, resuspended in TBS and titered. Following titration of the amplified phage, samples containing phage from each set of animals were combined, adjusting the titer of each sample to the same titer, and were plated for plaques on LB agar plates (22 cm^2 square plates). Either 12,000 or 24,000 phage were plated for plaques. The intestinal tissue portion used in each closed loop was excised. […] Alternatively, the tissue (in PBS supplemented with protease inhibitors) was homogenized in an Ultra Thorex homogenizer, washed 3 times in PBS containing protease inhibitors and resuspended in PBS containing protease inhibitors (Int-G samples). In each case, serial dilutions (neat and 10^−2, 10^−4, 10^−6 dilutions) of the tissue homogenate was titered in E. coli.
The phage amplified from the portal blood, systemic blood and intestinal tissue was plated for plaques. […] The filters were air-dried, and the DNA was cross-linked to the filter (UV crosslinking: 2 min, high setting). The filters were incubated in pre-hybridization buffer (6×SSC, 5×Denhardt's solution, 0.1% SDS, 20 μg/ml yeast tRNA) at 40° C.-45° C. for at least 60 min.
Synthetic oligonucleotides, (22-mers), complimentary to regions coding for the receptor or binding sites used to create the preselected phage library, were synthesized (see Table 14 below).
The oligonucleotides (5 pmol) were 5′ end labelled with ^32P-ATP and T4 polynucleotide kinase and approximately 2.5 pmol of labelled oligonucleotide was used in hybridization studies. […] The filters were air-dried and exposed for autoradiography for 15 hours, 24 hours or 72 hours.
Hybridization data for pools from each receptor group of rats was compiled.

[4] = system: fixed Caco-2 or C2BBe1 cells; assay: ELISA of GST fusion proteins on fixed Caco-2 or C2BBe1 cells; assay type: binding; conditions: Caco-2
Description: Fixed Caco-2, C2BBe1, and A431 cell plates were prepared by growing cells on tissue culture treated microtiter plates. When cells were confluent, plates were fixed with 10% formaldehyde, washed twice with PBS and stored with 0.5% BSA-PBS at −20° C. […] The standard ELISA procedure was followed at this point.
The standard ELISA procedure was modified as follows. GST proteins were diluted to an appropriate concentration in PBS containing 1% BSA and 0.05% Tween20 (1% BPT), titered and incubated one hour at room temperature. Following five washes an anti-GST monoclonal antibody was added (Sigma, St. Louis Clone GST-2 diluted 1:10,000 in 1% BPT) and incubated one hour. After five more washes goat anti-mouse IgG2b-HRP was added (Southern Biotechnology Associates Inc., Birmingham, Ala., diluted 1:4000 in 1% BPT) and incubated one hour. After five washes plates were developed with TMB peroxidase substrate (Kirkegard and Perry, Gaithersburg, Md.). All data is presented with background binding subtracted.

[5] = HAX42 peptides, ratio to ZElan021 (arbitrary 1.00), first 50 μg/ml column
[6] = HAX42 peptides, ratio to ZElan021 (arbitrary 1.00), second 50 μg/ml column
[7] = HAX42 peptides, ratio to ZElan021 (arbitrary 1.00)
[8] = PAX2 peptides, ratio to ZElan021 (HAX42 = 1.00), first 20 μg/ml column
[9] = PAX2 peptides, ratio to ZElan021 (HAX42 = 1.00), first 50 μg/ml column
[10] = PAX2 peptides, ratio to ZElan021 (HAX42 = 1.00), second 50 μg/ml column
[11] = PAX2 peptides, ratio to ZElan021 (HAX42 = 1.00), second 20 μg/ml column

## CC(C)C[C@H](NC(=O)[C@H](CC(N)=O)NC(=O)[C@@H](N)CCCCNS(=O)(=O)c1cccc2c(N(C)C)cccc12)C(=O)N[C@@H](CCCNC(=N)N)C(=O)N[C@@H](CO)C(=O)N[C@@H](CC(=O)O)C(=O)N[C@@H](CC(N)=O)C(=O)N[C@@H](C)C(=O)N[C@@H](CCCCN)C(=O)N[C@@H](CCC(=O)O)C(=O)N1CCC[C@H]1C(=O)NCC(=O)N[C@@H](CC(=O)O)C(=O)N[C@@H](Cc1ccc(O)cc1)C(=O)N[C@@H](CC(N)=O)C(=O)N[C@@H](CS)C(=O)N[C@@H](CS)C(=O)NCC(=O)N[C@@H](CC(N)=O)C(=O)NCC(=O)N[C@@H](CC(N)=O)C(=O)N[C@@H](CO)C(=O)N[C@H](C(=O)NCC(=O)N[C@@H](CCCNC(=N)N)C(=O)N[C@@H](CCCCN)C(=O)N[C@H](C(=O)N[C@@H](Cc1ccccc1)C(=O)N[C@@H](CC(N)=O)C(=O)N[C@@H](CCCNC(=N)N)C(N)=O)C(C)C)[C@@H](C)O [ZElan071] (H-K(Dansyl)NLRSDNAKEPGDYNCCGNGNSTGRKVFNR-NH2)
[1]; [5]
  Binding value at 50 μg/ml: 0.89
[1]; [6]
  Binding value at 50 μg/ml: 0.75

## CC[C@H](C)[C@H](NC(=O)[C@H](C)NC(=O)[C@H](CO)NC(=O)[C@@H]1CCCN1C(=O)[C@H](CCCNC(=N)N)NC(=O)[C@H](CCCNC(=N)N)NC(=O)[C@H](CC(N)=O)NC(=O)[C@H](Cc1ccccc1)NC(=O)[C@@H](NC(=O)[C@H](CCCCN)NC(=O)[C@H](CCCNC(=N)N)NC(=O)CNC(=O)[C@@H](NC(=O)[C@H](CO)NC(=O)[C@H](CC(N)=O)NC(=O)CNC(=O)[C@H](CC(N)=O)NC(=O)CNC(=O)[C@H](CS)NC(=O)[C@H](CS)NC(=O)[C@H](CC(N)=O)NC(=O)[C@H](Cc1ccc(O)cc1)NC(=O)[C@H](CC(=O)O)NC(=O)CNC(=O)[C@@H]1CCCN1C(=O)[C@@H](N)CCCCNS(=O)(=O)c1cccc2c(N(C)C)cccc12)[C@@H](C)O)C(C)C)C(=O)N1CCC[C@H]1C(=O)N[C@H](C(N)=O)[C@@H](C)O [ZElan072] (H-K(Dansyl)PGDYNCCGNGNSTGRKVFNRRPSAIPT-NH2)
[1]; [7]
  Binding value at 20 μg/ml: 0.83
[1]; [5]
  Binding value at 50 μg/ml: 0.61
[1]; [6]
  Binding value at 50 μg/ml: 0.88

## CC(C)C[C@H](NC(=O)[C@H](CCCNC(=N)N)NC(=O)[C@H](CCCNC(=N)N)NC(=O)[C@H](CC(N)=O)NC(=O)[C@H](Cc1c[nH]cn1)NC(=O)[C@H](CO)NC(=O)[C@H](CO)NC(=O)[C@@H](N)CCCCNS(=O)(=O)c1cccc2c(N(C)C)cccc12)C(=O)N[C@@H](CCCNC(=N)N)C(=O)N[C@@H](C)C(=O)N[C@@H](CCCNC(=N)N)C(N)=O [ZElan081] (H-K(Dansyl)SSHNRRLRAR-NH2)
[1]; [8]
  Binding value at 20 μg/ml: 0.01
[1]; [9]
  Binding value at 50 μg/ml: 0.89
[1]; [10]
  Binding value at 50 μg/ml: 0.47

## CC(C)C[C@H](NC(=O)[C@H](CCCNC(=N)N)NC(=O)[C@H](CCCNC(=N)N)NC(=O)[C@H](CC(N)=O)NC(=O)[C@H](Cc1c[nH]cn1)NC(=O)[C@H](CO)NC(=O)[C@H](CO)NC(=O)[C@@H](N)CCCCNS(=O)(=O)c1cccc2c(N(C)C)cccc12)C(=O)N[C@@H](CCCNC(=N)N)C(=O)N[C@H](C(=O)N[C@@H](C)C(N)=O)[C@@H](C)O [ZElan082] (H-K(Dansyl)SSHNRRLRTA-NH2)
[1]; [8]
  Binding value at 20 μg/ml: 0.00
[1]; [9]
  Binding value at 50 μg/ml: 0.92
[1]; [10]
  Binding value at 50 μg/ml: 0.40

## CC(C)C[C@H](NC(=O)[C@H](CCCNC(=N)N)NC(=O)[C@H](CO)NC(=O)[C@@H](NC(=O)[C@H](CCCCN)NC(=O)[C@H](CC(N)=O)NC(=O)[C@H](CCCNC(=N)N)NC(=O)[C@@H](NC(=O)[C@H](CC(N)=O)NC(=O)[C@H](CCCNC(=N)N)NC(=O)[C@@H](N)CCCCNS(=O)(=O)c1cccc2c(N(C)C)cccc12)[C@@H](C)O)[C@@H](C)O)C(=O)N[C@@H](CO)C(=O)N[C@@H](C)C(=O)N[C@@H](CC(N)=O)C(=O)N1CCC[C@H]1C(=O)N[C@@H](Cc1c[nH]cn1)C(=O)N[C@@H](CCCNC(=N)N)C(=O)N[C@@H](CO)C(=O)N[C@@H](Cc1c[nH]cn1)C(=O)N[C@@H](CCCNC(=N)N)C(N)=O [ZElan084] (H-K(Dansyl)RNTRNKTSRLSANPHRSHR-NH2)
[1]; [11]
  Binding value at 20 μg/ml: 0.93
[1]; [10]
  Binding value at 50 μg/ml: 0.77

## H-K(Dansyl)GRNHDVVSSNTHKSYRSPRSASYPRLSNDRTDRTEPAPSS-NH2 [ZElan083]
[1]; [8]
  Binding value at 20 μg/ml: 0.43
[1]; [11]
  Binding value at 20 μg/ml: 0.63
[1]; [10]
  Binding value at 50 μg/ml: 0.88

## H-K(Dansyl)SDHALGTNLRSDNAKEPGDYNCCGNGNSTGRKVFNRRRPSAIPT-NH2 (cysteines drawn unpaired) [ZElan021]
[1]; [7]
  Binding value at 20 μg/ml: 1.00
[1]; HAX42 peptides, ratio to ZElan021 (arbitrary 1.00), first 25 μg/ml column
  Binding value at 25 μg/ml: 1.00
[1]; [5]
  Binding value at 50 μg/ml: 1.00
[1]; HAX42 peptides, ratio to ZElan021 (arbitrary 1.00), second 25 μg/ml column
  Binding value at 25 μg/ml: 1.00
[1]; [6]
  Binding value at 50 μg/ml: 1.00
[1]; HAX42 peptides, ratio to ZElan021 (arbitrary 1.00), third 25 μg/ml column
  Binding value at 25 μg/ml: 1.00

## H-K(Dansyl)STPPSREAYSRPYSVDSDSDTNAKHSSHNRRLRTRSRPNG-NH2 [ZElan018]
[1]; [8]
  Binding value at 20 μg/ml: −0.33
[1]; [9]
  Binding value at 50 μg/ml: 0.95

## SPCGGSWGRFMQGGLFGGRTDGCGAHRNRTSASLEPPSSDY [SNi34]
[2]
  Insulin (insulin potency): 61.5 mg/g
  Peptide (level of peptide coated onto the particles): 4.03 µL/mg

## STPPSREAYSRPYSVDSDSDTNAKHSSHNRRLRTRSRPN [PAX2]
[3]; text summary of HPT1 and hPEPT1 pools
  presence in the systemic circulation (in words): found in the portal and systemic circulation
[3]; text summary of the four pools
  presence in the intestine samples or fractions (in words): not found in the intestine samples
[2]
  Insulin (insulin potency): 60.7 mg/g
  Peptide (level of peptide coated onto the particles): 3.51 µL/mg

## gst-RGSTGTAGGERSGVLNLHTRDNASGSGFKPWYPSNRGHK [GST-5PAX5]
[4]
  binding to fixed Caco-2 or C2BBe1 cells relative to GST control: weak to moderate binding

## gst-SPCGGGSWCRFMQGGLFGGRTDGCGAHRNRTSASLEPPSSDY [GST-SNi34]
[4]
  binding to fixed Caco-2 or C2BBe1 cells relative to GST control: bound
